We go through eight molecules from patent US8822692B2, “Diterpenoid derivatives endowed of biological properties” (SIGMA-TAU Industrie Farmaceutiche Riunite S.p.A., priority 2010, dated 2014).

Type in all cases: in vivo, rat
The test system of experiment [1] is Ouabain-Hypertensive Rats (OHR). Put plainly: Anti-hypertensive effect in ouabain-hypertensive rats (OHR), six week oral treatment. The conditions noted are these: six weeks. The method, then: (§1) Anti-hypertensive property of various derivatives were looked at in vivo in three animal models of hypertension (i.e., mutant α-adducin congenic rats, ouabain-hypertensive rats and Milan hypertensive rats).
Hypertension was provoked by subcutaneous ouabain infusion (15 μg/kg/day) in normotensive rats as already described (Ferrari P., et al., J. Pharmacol. Exp. Ther., 1998, 285, 83).

Experiment [2] deals with Milan Hypertensive Rats (MHS). Put plainly: Anti-hypertensive effect in Milan hypertensive rats (MHS), six week oral treatment. The conditions noted are these: for SBP / HR: oral gavage 10 μg/kg/day, six weeks; for SBP: vehicle 169 (experiment A), 164 (experiment B); for HR: vehicle 348 (experiment A), 363 (experiment B); for effect on SBP in MHS rats (in words): at the dose tested.
From the text: as §1
Milan hypertensive rats is a rat model of genetic hypertension sustained by α-adducin mutation and increased circulating levels of endogenous ouabain (Ferrari P., et al., Hypertension: Pathophysiology, Diagnosis and Management, (Volume 1). Laragh J H and Brenner B M (Eds.), Raven Press Publishers, New York, USA, 1261-1279, (1995).
The compounds were administered by oral gavage (10 μg/kg/day) for six weeks.

In the next experiment the test system is OHR rats. Briefly: Urinary protein excretion and renal function in OHR rats. The method, then: The effect of the compound of example 4 on urinary protein excretion was investigated. Increased levels of circulating endogenous ouabain not only associate with hypertension but also may affect renal function and increase the risk of renal failure and proteinuria (Stella P., et al., J. Int. Med., 2008, 263, 274) which represent major organ complications associated to hypertension.
OHR rats were orally treated with the compound of example 4 at 0.1 μg/kg/day for 6 weeks. At the end of the treatment, rats were allocated in single metabolic cages for 24 h urine collection.
Proteinuria and urinary creatinine were measured by commercial kits (Sentinel). Rats were sacrificed and blood was collected for plasma creatinine measurement.

For experiment [3], the system named is rats bearing an α-adducin mutation (NA strain). Briefly: Anti-hypertensive effect in mutant α-adducin congenic rats (NA), six week oral treatment. The conditions noted are these: six weeks; for SBP: vehicle 164.4; for HR: vehicle 412. Here is the method: Anti-hypertensive property of various derivatives were looked at in vivo in three animal models of hypertension (i.e., mutant α-adducin congenic rats, ouabain-hypertensive rats and Milan hypertensive rats). The compound of example 4 was administered by oral gavage at various doses for six weeks to rats bearing an α-adducin mutation (NA strain). Such mutation leading to hypertension and organ complication (Bianchi G., et al., Proc. Natl. Acad. Sci., 1994, 91, 3999) was obtained by introgressing a segment of chromosome 14 containing the locus of α-adducin from Milan Hypertensive rats (MHS), having the mutant variant, into Milan Normotensive rats (MNS), carrying the wild type α-adducin variant (Tripodi G., et al., Biochem. Biophys. Res. Commun., 2004, 324, 562).

The mark [4] stands for this setting: oral gavage 1 μg/kg/day once a day, experiment A, vehicle 173.
Where [5] appears, read: oral gavage 1 μg/kg/day once a day, experiment A, vehicle 387.
[6] abbreviates: oral gavage 0.1 μg/kg/day once a day, experiment A, vehicle 173.
Where [7] appears, read: oral gavage 0.1 μg/kg/day once a day, experiment A, vehicle 387.

Marks after values point to notes of the source that are not given here.

On to `CC(N)CCCCC1(C)CCCC2(C)c3ccc(C(C)C)cc3CCC12.O=C(O)/C=C/C(=O)O` (stereo not shown) [Example 26, 15-(4-Aminopentyl)-13-isopropylpodocarpa-8,11,13-triene fumarate], for which the SBP in experiment [1] (setting [4]) amounted to 164 mmHg. In addition, in experiment [1] (setting [5]), the HR is recorded as 374 beats/min.

Molecule `CC(C)c1ccc2c(c1)CCC1C(C)(CCCCCN)CCCC21C.O=C(O)/C=C/C(=O)O` (stereo not shown) [Example 25, 15-(4-Aminobutyl)-13-isopropylpodocarpa-8,11,13-triene fumarate] displayed an SBP in experiment [1] (setting [6]) of 164 mmHg. Moreover, the HR in experiment [1] (setting [7]) amounted to 395 beats/min.

With `CC(C)c1ccc2c(c1)CCC1C(C)(/C=N/O[C@H]3CCNC3)CCCC21C.O=C(O)/C=C/C(=O)O` (stereo partly drawn) [Example 5, (E)-15-((S)-3-Pyrrolidinyloxyimino)-13-isopropylpodocarpa-8,11,13-triene fumarate], the SBP was 154** mmHg in experiment [1] (setting [6]) and 155* mmHg in experiment [2]. Also, the HR in experiment [1] (setting [7]) is recorded as 390 beats/min; in experiment [2] it was 367 beats/min.

Turning to `CC(C)c1ccc2c(c1)C(=O)C[C@H]1[C@](C)(/C=N/OCCN)CCC[C@]21C.O=C(O)/C=C/C(=O)O` [Example 12, (E)-15-(2-Aminoethoxyimino)-13-isopropylpodocarpa-8,11,13-triene-7-one fumarate], the SBP in experiment [1] (oral gavage 10 μg/kg/day once a day, experiment B, vehicle 171) was 156** mmHg; in experiment [2], 161* mmHg. The HR in experiment [1] (oral gavage 10 μg/kg/day once a day, experiment B, vehicle 377) worked out at 380 beats/min; in experiment [2], 347 beats/min. Further, the “effect on SBP in MHS rats (in words)” value in experiment [2] is on record as “significantly reduced SBP”.

For `CC(C)c1ccc2c(c1)CCC1C(C)(COCCCN)CCCC21C.O=C(O)/C=C/C(=O)O` (stereo not shown) [Example 27, 15-(3-Aminopropoxy)-13-isopropylpodocarpa-8,11,13-triene fumarate], the SBP in experiment [1] (setting [4]) is listed as 156** mmHg. The molecule further yielded an HR in experiment [1] (setting [5]) of 390 beats/min. Also, in experiment [2], the “effect on SBP in MHS rats (in words)” value is “significantly reduced SBP”, the SBP was 156* mmHg and the HR turned out to be 367 beats/min.

As to `CC(C)c1ccc2c(c1)CCC1C(C)(/C=C\CCCN)CCCC21C.O=C(O)/C=C/C(=O)O` (stereo not shown) [Example 23, (Z)-15-(4-Aminobutyliden)-13-isopropylpodocarpa-8,11,13-triene fumarate], in experiment [1] (setting [4]), the SBP was 159** mmHg. In experiment [1] (setting [5]), this molecule registered an HR of 370 beats/min.

As to `CC(C)c1ccc2c(c1)CCC1C(C)(C=NOC3CCNCC3)CCCC21C.O=C(O)C=CC(=O)O` (stereo not shown) [Example 6, (E)-15-(4-Piperidinyloxyimino)-13-isopropylpodocarpa-8,11,13-triene fumarate], the SBP in experiment [1] (setting [4]) is 166 mmHg. Moreover, the HR in experiment [1] (setting [5]) was 392 beats/min.

As to `CC(C)c1ccc2c(c1)CCC1C(C)(/C=N/O[C@@H]3CCNC3)CCCC21C.O=C(O)/C=C/C(=O)O` (stereo partly drawn) [Example 4, (E)-15-((R)-3-Pyrrolidinyloxyimino)-13-isopropylpodocarpa-8,11,13-triene fumarate], the SBP in experiment [1] (setting [6]) is recorded as 157** mmHg; in experiment [1] (setting [4]) it was 153** mmHg; in experiment [3] (oral gavage 1 μg/kg/day) it was 150.6* mmHg; in experiment [3] (oral gavage 10 μg/kg/day) it was 150.6* mmHg; in experiment [3] (oral gavage 100 μg/kg/day), 147.5** mmHg. In addition, the HR was 382 beats/min in experiment [1] (setting [7]); 380 beats/min in experiment [1] (setting [5]); 415 beats/min in experiment [3] (oral gavage 1 μg/kg/day); 425 beats/min in experiment [3] (oral gavage 10 μg/kg/day); 421 beats/min in experiment [3] (oral gavage 100 μg/kg/day). Moreover, the “effect on SBP in MHS rats (in words)” value in experiment [2] was “not effective on SBP”. Besides, the “urinary protein excretion in OHR rats (in words)” value in the experiment on OHR rats (0.1 μg/kg/day) is “significantly reduced the urinary protein excretion”. This molecule showed a Urinary creatinine in the experiment with OHR rats (oral 0.1 μg/kg/day, 6 weeks, 24 h urine, OHR vehicle 33.7, saline controls 36.1) of 35.6 mg/24 h. In addition, the Proteinuria in the experiment on OHR rats (oral 0.1 μg/kg/day, 6 weeks, 24 h urine, OHR vehicle 51.6 ± 5, saline controls 35.6) is on record as 42** mg/24 hr. Besides, the Plasma creatinine in the experiment with OHR rats (oral 0.1 μg/kg/day, 6 weeks, OHR vehicle 3.51, saline controls 3.1) turned out to be 3.59 mg/dL.
